Source: ChEMBL document CHEMBL3596174, “Investigation on the sucrose binding pocket of HIV-1 Integrase by molecular dynamics and synergy experiments” (Bioorg Med Chem Lett, 2015)

Assays:
[1] = target: Human immunodeficiency virus type 1 integrase (Human immunodeficiency virus 1, UniProt Q7ZJM1); assay: Binding affinity to recombinant HIV-1 integrase catalytic core domain expressed in Escherichia coli assessed as inhibition of interaction with […] by HTRF assay
[2] = target: Human immunodeficiency virus type 1 integrase (Human immunodeficiency virus 1) (UniProt Q7ZJM1); assay: Inhibition of His-tagged HIV-1 integrase-mediated 3' processing and strand transfer reactions using 5'-ACAGGCCTAGCACGCGTCG-Biotin-3' annealed with 5'-CGACGCGTGGTAGGCCTGT-Biotin3'/5'-Cy5-ATGTGGAAAATCTCTAGCAGT-3' annealed with 5'-Cy5-TGAGCTCGAGATTTTCCACAT-3' as donar/acceptor DNA substrate preincubated for 1 hr followed by DNA and LEDGF/p75 addition measured after 90 mins by HTRF assay
Sequence of Human immunodeficiency virus type 1 integrase (Human immunodeficiency virus 1) (Q7ZJM1 as listed by the source): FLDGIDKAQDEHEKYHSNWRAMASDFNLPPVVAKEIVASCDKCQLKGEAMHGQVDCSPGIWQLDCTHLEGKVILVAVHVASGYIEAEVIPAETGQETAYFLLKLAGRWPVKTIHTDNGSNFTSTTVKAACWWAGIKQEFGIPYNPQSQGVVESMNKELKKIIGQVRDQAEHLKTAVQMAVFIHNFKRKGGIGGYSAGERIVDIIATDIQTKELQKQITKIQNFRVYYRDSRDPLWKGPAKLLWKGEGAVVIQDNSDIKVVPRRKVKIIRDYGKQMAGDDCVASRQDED

Sequence of Human immunodeficiency virus type 1 integrase (Q7ZJM1 whole entry, the tested form may be a part): as the sequence (Q7ZJM1 as listed by the source) above

IC50 [1] | inhibition [2] | Compound
0.018 µM | – | Cc1nc2ccccc2c(-c2cc(F)c3c(c2C)CCCO3)c1[C@H](OC(C)(C)C)C(=O)O
0.06 µM | – | Cc1nc2ccc(Br)cc2c(-c2ccc(Cl)cc2)c1[C@H](OC(C)(C)C)C(=O)O
– | Dose-dependent effect | CCC[C@H](C(=O)O)c1c(C)nc2ccc(Cl)cc2c1-c1ccccc1
